According to patent publication US9833497B2, “Human originated EGF domain proteins and use of the same” (CHENGDU SOURCEBIO LIMITED-LIABILITY COMPANY, priority 2013, dated 2017):

Assays:
Assay type in all cases: cell-based
Proteus mirabilis = test: MIC against Gram-negative bacteria: Proteus mirabilis; details: for MIC / MIC (μg/mL) P. mirabilis: P. mirabilis
Procedure, shortened: (§1)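 First, colonies from LB agar were grown in LB at 37° C, 185 rpm, to McFarland turbidity 0.5, then centrifuged and resuspended in fresh LB. Next, wells received 5×10^5 CFU/mL bacteria plus two-fold serially diluted EGF domain protein (triplicate). Finally, plates were shaken at 37° C and the no-growth concentration taken as MIC.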

Klebsiella pneumonia = test: MIC against Gram-negative bacteria: Klebsiella pneumonia; details: for MIC / MIC (μg/mL) K. pneumonia: K. pneumonia
Procedure, shortened: as §1

E. coli BL21 = test: MIC against Gram-negative bacteria: E. coli BL21
Procedure, shortened: as §1

E. coli DH5α = test: Antibacterial activity: MIC and growth curve against E. coli DH5α in 96-well plate; details: minimal inhibitory concentration against E. coli DH5α; 96-well plate, 5×10^5 CFU/mL, 37° C., judged after 8 h
Procedure, shortened: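 Log-phase DH5α (OD600 about 0.5, 37° C, 185 rpm in LB) was pelleted, resuspended in fresh LB and seeded at 5×10^5 CFU/mL with recombinant protein at 50, 25 and 12.5 μg/mL (two-fold series), in triplicate. Plates were shaken at 175 rpm, 37° C, and OD600 was read every 30 min. MIC was the lowest concentration with no growth.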

Pseudomonas aeruginosa = test: MIC against Gram-negative bacteria: Pseudomonas aeruginosa; details: for MIC / MIC (μg/mL) P. aeruginosa: P. aeruginosa
Procedure, shortened: as §1

Enterobacter cloacae = test: MIC against Gram-negative bacteria: Enterobacter cloacae; details: for MIC / MIC (μg/mL) E. cloacae: E. cloacae
Procedure, shortened: as §1

Proteus vulgaris = test: MIC against Gram-negative bacteria: Proteus vulgaris; details: for MIC / MIC (μg/mL) P. vulgaris: P. vulgaris
Procedure, shortened: as §1

Citrobacter diversus = test: MIC against Gram-negative bacteria: Citrobacter diversus; details: for MIC / MIC (μg/mL) C. diversus: C. diversus
Procedure, shortened: as §1

Moraxella catarrhalis = test: MIC against Gram-negative bacteria: Moraxella catarrhalis; details: for MIC / MIC (μg/mL) M. catarrhalis: M. catarrhalis
Procedure, shortened: as §1

Aeromonas hydrophila = test: MIC against Gram-negative bacteria: Aeromonas hydrophila; details: for MIC / MIC (μg/mL) A. hydrophila: A. hydrophila
Procedure, shortened: as §1

Serratia marcescens = test: MIC against Gram-negative bacteria: Serratia marcescens; details: for MIC / MIC (μg/mL) S. marcescens: S. marcescens
Procedure, shortened: as §1

[1] = 96-well plate, 5×10^5 CFU/mL, 37° C., 10 h
[2] = E. coli BL21, 10 h cultivation at 37° C.
[3] = 10 h cultivation at 37° C., 5×10^5 CFU/mL, two-fold serial dilution
[4] = 10 h cultivation at 37° C., 5×10^5 CFU/mL
[5] = E. coli BL21, 10 h cultivation at 37° C., 5×10^5 CFU/mL

## PRT592 (CDCDFRGTEGPGCDKASGRCLCRPGLTGPRCDQCQRGYCNRYPVCVA; listed as Homo sapiens)
Proteus mirabilis; [1]
  MIC against P. mirabilis: 50 µg/mL
Klebsiella pneumonia; [1]
  MIC against K. pneumonia: 12.5 µg/mL
E. coli BL21; [1]
  MIC against E. coli BL21: 12.5 µg/mL
E. coli DH5α
  MIC: 50 µg/mL
Pseudomonas aeruginosa; [1]
  MIC against P. aeruginosa: 50 µg/mL
Enterobacter cloacae; [1]
  MIC against E. cloacae: 50 µg/mL
Proteus vulgaris; [1]
  MIC against P. vulgaris: 25 µg/mL
Citrobacter diversus; [1]
  MIC against C. diversus: 50 µg/mL
Moraxella catarrhalis; [1]
  MIC against M. catarrhalis: 100 µg/mL
Aeromonas hydrophila; [1]
  MIC against A. hydrophila: 12.5 µg/mL
Serratia marcescens; [1]
  MIC against S. marcescens: 12.5 µg/mL

## PRT1399 (ARVQCPDQCSGHGTYLPDTGLCSCDPNWMGPDCS; listed as Homo sapiens)
Proteus mirabilis; Proteus mirabilis, 5×10^5 CFU/mL, 10 h cultivation at 37° C.
  MIC against P. mirabilis: 25 µg/mL
Klebsiella pneumonia; Klebsiella pneumonia, 5×10^5 CFU/mL, 10 h cultivation at 37° C.
  MIC against K. pneumonia: 12.5 µg/mL
E. coli BL21; E. coli BL21, 5×10^5 CFU/mL, 10 h cultivation at 37° C.
  MIC against E. coli BL21: 12.5 µg/mL
E. coli DH5α
  MIC: 12.5 µg/mL
Pseudomonas aeruginosa; Pseudomonas aeruginosa, 5×10^5 CFU/mL, 10 h cultivation at 37° C.
  MIC against P. aeruginosa: 12.5 µg/mL
Enterobacter cloacae; Enterobacter cloacae, 5×10^5 CFU/mL, 10 h cultivation at 37° C.
  MIC against E. cloacae: 25 µg/mL
Proteus vulgaris; Proteus vulgaris, 5×10^5 CFU/mL, 10 h cultivation at 37° C.
  MIC against P. vulgaris: 12.5 µg/mL
Citrobacter diversus; Citrobacter diversus, 5×10^5 CFU/mL, 10 h cultivation at 37° C.
  MIC against C. diversus: 25 µg/mL
Moraxella catarrhalis; Moraxella catarrhalis, 5×10^5 CFU/mL, 10 h cultivation at 37° C.
  MIC against M. catarrhalis: 12.5 µg/mL
Aeromonas hydrophila; Aeromonas hydrophila, 5×10^5 CFU/mL, 10 h cultivation at 37° C.
  MIC against A. hydrophila: 12.5 µg/mL
Serratia marcescens; Serratia marcescens, 5×10^5 CFU/mL, 10 h cultivation at 37° C.
  MIC against S. marcescens: 25 µg/mL

## PRT895 (NIDECAGNPCHNGGTCEDGINGFTCRCPEGYHDPTCL; listed as Homo sapiens)
Proteus mirabilis; 10 h cultivation at 37° C.
  MIC: 12.5 µg/mL
Klebsiella pneumonia; 10 h cultivation at 37° C.
  MIC: 50 µg/mL
E. coli BL21; [2]
  MIC: 25 µg/mL
E. coli DH5α
  MIC: 50 µg/mL
Pseudomonas aeruginosa; 10 h cultivation at 37° C.
  MIC: 12.5 µg/mL
Enterobacter cloacae; 10 h cultivation at 37° C.
  MIC: 12.5 µg/mL
Proteus vulgaris; 10 h cultivation at 37° C.
  MIC: 25 µg/mL
Citrobacter diversus; 10 h cultivation at 37° C.
  MIC: 12.5 µg/mL
Moraxella catarrhalis; 10 h cultivation at 37° C.
  MIC: 50 µg/mL
Aeromonas hydrophila; 10 h cultivation at 37° C.
  MIC: 50 µg/mL
Serratia marcescens; 10 h cultivation at 37° C.
  MIC: 25 µg/mL

## PRT1016 (RAGPCPPRGCSNGGTCQLMPEKDSTFHLCLCPPGFIGPDCE; listed as Homo sapiens)
Proteus mirabilis; 10 h cultivation at 37° C.
  MIC: 50 µg/mL
Klebsiella pneumonia; 10 h cultivation at 37° C.
  MIC: 25 µg/mL
E. coli BL21; [2]
  MIC: 25 µg/mL
E. coli DH5α
  MIC: 12.5 µg/mL
Pseudomonas aeruginosa; 10 h cultivation at 37° C.
  MIC: 50 µg/mL
Enterobacter cloacae; 10 h cultivation at 37° C.
  MIC: 12.5 µg/mL
Proteus vulgaris; 10 h cultivation at 37° C.
  MIC: 25 µg/mL
Citrobacter diversus; 10 h cultivation at 37° C.
  MIC: 50 µg/mL
Moraxella catarrhalis; 10 h cultivation at 37° C.
  MIC: 100 µg/mL
Aeromonas hydrophila; 10 h cultivation at 37° C.
  MIC: 25 µg/mL
Serratia marcescens; 10 h cultivation at 37° C.
  MIC: 12.5 µg/mL

## PRT1167 (NINDCESNPCRNGGTCIDGVNSYKCICSDGWEGAYCE; listed as Homo sapiens)
Proteus mirabilis; [3]
  MIC P. mirabilis: 50 µg/mL
Klebsiella pneumonia; [3]
  MIC K. pneumonia: 25 µg/mL
E. coli BL21; [3]
  MIC E. coli BL21: 25 µg/mL
E. coli DH5α
  MIC: 50 µg/mL
Pseudomonas aeruginosa; [3]
  MIC P. aeruginosa: 12.5 µg/mL
Enterobacter cloacae; [3]
  MIC E. cloacae: 50 µg/mL
Proteus vulgaris; [3]
  MIC P. vulgaris: 25 µg/mL
Citrobacter diversus; [3]
  MIC C. diversus: 12.5 µg/mL
Moraxella catarrhalis; [3]
  MIC M. catarrhalis: 25 µg/mL
Aeromonas hydrophila; [3]
  MIC A. hydrophila: 25 µg/mL
Serratia marcescens; [3]
  MIC S. marcescens: 12.5 µg/mL

## PRT178 (SGVTCADGPCFNGGLCVGGADPDSAYICHCPPGFQGSNCE; listed as Homo sapiens)
Proteus mirabilis; [4]
  MIC (μg/mL) P. mirabilis: 50 µg/mL
Klebsiella pneumonia; [4]
  MIC (μg/mL) K. pneumonia: 12.5 µg/mL
E. coli BL21; [5]
  MIC (μg/mL) E. coli BL21: 50 µg/mL
E. coli DH5α
  MIC: 25 µg/mL
Pseudomonas aeruginosa; [4]
  MIC (μg/mL) P. aeruginosa: 25 µg/mL
Enterobacter cloacae; [4]
  MIC (μg/mL) E. cloacae: 50 µg/mL
Proteus vulgaris; [4]
  MIC (μg/mL) P. vulgaris: 12.5 µg/mL
Citrobacter diversus; [4]
  MIC (μg/mL) C. diversus: 50 µg/mL
Moraxella catarrhalis; [4]
  MIC (μg/mL) M. catarrhalis: 12.5 µg/mL
Aeromonas hydrophila; [4]
  MIC (μg/mL) A. hydrophila: 12.5 µg/mL
Serratia marcescens; [4]
  MIC (μg/mL) S. marcescens: 25 µg/mL

## PRT250 (DVDECRTSITLCSHHCFNTAGSFTCGCPHDLVLGVDGRTCM; listed as Homo sapiens)
Proteus mirabilis; [4]
  MIC (μg/mL) P. mirabilis: 12.5 µg/mL
Klebsiella pneumonia; [4]
  MIC (μg/mL) K. pneumonia: 12.5 µg/mL
E. coli BL21; [5]
  MIC (μg/mL) E. coli BL21: 12.5 µg/mL
E. coli DH5α
  MIC: 12.5 µg/mL
Pseudomonas aeruginosa; [4]
  MIC (μg/mL) P. aeruginosa: 12.5 µg/mL
Enterobacter cloacae; [4]
  MIC (μg/mL) E. cloacae: 12.5 µg/mL
Proteus vulgaris; [4]
  MIC (μg/mL) P. vulgaris: 25 µg/mL
Citrobacter diversus; [4]
  MIC (μg/mL) C. diversus: 12.5 µg/mL
Moraxella catarrhalis; [4]
  MIC (μg/mL) M. catarrhalis: 25 µg/mL
Aeromonas hydrophila; [4]
  MIC (μg/mL) A. hydrophila: 25 µg/mL
Serratia marcescens; [4]
  MIC (μg/mL) S. marcescens: 12.5 µg/mL
